This note sets out measurements from PubChem BioAssay (NCI).

The structures appear in SMILES notation.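 Interpolation was linear, between the two tested concentrations surrounding the appropriate level; five concentrations were tested over 48 hours in 96-well plates. GI50 marks 50% less growth. TGI is the concentration that stops growth completely.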

Common to all, as to test: NCI-60 cell line screen, 48 h
Assay [1] relates to SN12C renal.
Assay [2] concerns M14 melanoma.
The test system of assay [3] is MDA-MB-231 breast.
The subject of assay [4] is A498 renal.
The subject of assay [5] is U251 CNS.
The subject of assay [6] is DU-145 prostate.
For assay [7], the system named is IGROV1 ovarian.
The subject of assay [8] is SW-620 colon.
Assay [9] deals with MOLT-4 leukemia.
In assay [10] the test system is LOX IMVI melanoma.
The test system of assay [11] is K-562 leukemia.

For `Fc1ccc(C(OCCN2CCC3CCC(C2)N3Cc2cc3ccccc3[nH]2)c2ccc(F)cc2)cc1` (stereo not given), the TGI in [1] was found to be 3.05 µM; in assay [2], 2.94 µM; in [3], 3.22 µM; in assay [4] it was 2.99 µM; in [5], 3.42 µM; in [6], 3.59 µM. In addition, the TGI in [7] is 2.79 µM; in assay [8], 3.78 µM; in [9], 4.03 µM; in assay [10] it was 3.18 µM.
Consider `COc1nc(=O)n(C2CC(N=[N+]=[N-])C(CO)O2)cc1C` (stereo not given), for which the TGI in assay [1], in assay [11], in [2], in assay [3], in assay [5] and in [6] was greater than 100 µM throughout. The TGI in assay [7], in [8], in assay [9] and in [10] was greater than 100 µM throughout.
For the compound `CC12ON=C(c3ccccc3)N1C=CN1C(c3ccccc3)=NOC12` (stereo not given), the TGI in assay [2], in assay [3], in assay [6], in assay [7] and in assay [10] was greater than 100 µM in each case.
Regarding `O=C(CCN1CCCC1)Nc1ccc2c(NCCCc3ccccc3)c3ccccc3nc2c1`, the GI50 in assay [1] was 0.815 µM; in assay [11], 0.945 µM; in [3], 1.02 µM; in assay [4], 1.31 µM; in assay [5], 1.04 µM; in assay [6], 0.886 µM. Also, the GI50 in assay [8] was 0.54 µM; in [10], 0.739 µM. For the same compound, the TGI came to 2.21 µM in assay [1]; 3.36 µM in assay [11]; 2.3 µM in [3]; 3.14 µM in assay [4]; 2.36 µM in [5]; 2.09 µM in assay [6]. For the same compound, the TGI came to 1.93 µM in assay [8] and 2.04 µM in assay [10].
In the case of `COc1cc2c(cc1OC)CCN=C2`, the TGI in assay [1], in assay [2], in [3], in assay [4], in assay [5] and in assay [6] was greater than 100 µM in each case. Moreover, the TGI in [7], in [8], in assay [9] and in assay [10] was greater than 100 µM throughout.
Turning to `O=C(/C=C/c1ccc(Cl)c(Cl)c1)Oc1ccc(/C=C2\CCCCC2=O)cc1`, the TGI in [1], in assay [2], in assay [3], in assay [4], in assay [5] and in [6] was greater than 100 µM throughout. The TGI was greater than 100 µM in assay [7], greater than 100 µM in assay [8], 72.1 µM in [9] and greater than 100 µM in [10].
For `Nc1ncc(Cc2nc3ccccc3s2)s1`, the TGI in assay [1], in assay [11], in assay [2], in assay [3], in [5] and in [6] was greater than 100 µM each time. The TGI in assay [7], in assay [8], in assay [9] and in assay [10] was greater than 100 µM in each case.
As for `COCN1C(=O)[C@@H]2CCCN2C(=O)c2cc([N+](=O)[O-])ccc21`, the TGI in assay [1], in [2], in assay [3], in assay [4], in assay [5] and in assay [6] was greater than 100 µM throughout. In addition, the TGI in assay [7], in [8] and in assay [10] was greater than 100 µM in each case.
As to `CC(=O)c1cn(-c2ccc(Cl)cc2)c(=O)c2c(N)n[nH]c12`, the TGI in [11], in [3], in assay [4], in assay [5], in [6] and in assay [7] was greater than 100 µM in each case. Besides, the TGI in assay [8], in assay [9] and in [10] was greater than 100 µM each time.
`CCCCCCCCCN1CCC(=O)C(C(=O)OC)C1` (stereo not given): the TGI came to 29.5 µM in assay [1]; 29.2 µM in [2]; 52.7 µM in [4]; 29.3 µM in assay [6]; 27.9 µM in assay [8]; 54.6 µM in assay [9]. Besides, the TGI in assay [10] came to 26.1 µM.
As for `C[C@@H]1OC(=O)C[C@H]2CC(=O)N(CCc3cn(S(=O)(=O)C(F)(F)F)c4ccccc34)C[C@@H]21`, the TGI in assay [11], in assay [2], in assay [3], in [4], in assay [5] and in assay [6] was greater than 100 µM in each case. The TGI in assay [7], in assay [8] and in assay [9] was greater than 100 µM throughout.
As for `CC(C)(C)OC(=O)N1CCC23CCCC2C(=O)CC=C13` (stereo not given), the TGI in assay [1], in assay [11], in assay [2], in [3], in assay [5] and in assay [6] was greater than 100 µM each time. The TGI in [7], in [8], in assay [9] and in [10] was greater than 100 µM throughout.
Take `CCOC(=O)c1nc2cc(C(F)(F)F)ccc2nc1Nc1ccc(Cl)c(Cl)c1`: the TGI in [1], in assay [2], in [3], in assay [4], in [5] and in assay [6] was greater than 100 µM each time. Besides, the TGI in [7], in [8], in assay [9] and in assay [10] was greater than 100 µM throughout.
Take `CN1CCN(c2ccc3[nH]c(C4=C(O)c5nc(CO)n(C)c5C(=O)C4=O)nc3n2)CC1`: the TGI in [1], in assay [11], in assay [2], in [3], in assay [5] and in assay [6] was greater than 100 µM each time. Besides, the TGI in assay [7], in assay [8], in assay [9] and in [10] was greater than 100 µM throughout.
Turning to `CN(/N=C\c1ccc2ccccc2c1)C1=NCCCCN1`, the TGI is 45.7 µM in assay [1]; 42.5 µM in assay [11]; 64.5 µM in [3]; 56.6 µM in assay [4]; 44.6 µM in assay [5]; greater than 100 µM in assay [6]. The TGI is greater than 100 µM in assay [7], 37.8 µM in assay [8], 48.2 µM in [9] and 28.7 µM in assay [10].
Regarding `NNC(=O)c1n[nH]nc1SSc1n[nH]nc1C(=O)NN`, the TGI in [1], in assay [2], in assay [3], in assay [5], in assay [6] and in assay [7] was greater than 100 µM each time. Also, the TGI in assay [8], in assay [9] and in assay [10] was greater than 100 µM each time.
On to `S=C(Nc1ccc(Br)cn1)NC12CC3CC(CC(C3)C1)C2`, for which the TGI was greater than 100 µM in [11]; greater than 100 µM in assay [2]; 58 µM in [3]; greater than 100 µM in assay [4]; 30 µM in assay [5]; greater than 100 µM in assay [6]. Besides, the figures for the TGI in [7], in assay [8] and in assay [9] were 30.2 µM, greater than 100 µM and 67.6 µM, respectively.
`COC/C=C\[C@@]1(O)CCCC[C@@H]1CC(OC)OC`: the TGI in [1] is 43.7 µM; in assay [11] it was greater than 100 µM; in [2], greater than 100 µM; in assay [3] it was greater than 100 µM; in assay [5], greater than 100 µM; in [6], greater than 100 µM. Besides, the TGI was greater than 55.6 µM in assay [7], greater than 100 µM in [8], 31.4 µM in assay [9] and 20.9 µM in assay [10].
Regarding `N#Cc1c(-c2ccc(Cl)cc2)c(C#N)c(=O)n(NS(=O)(=O)c2ccccc2)c1-c1ccccc1`, the TGI in assay [1], in assay [11], in assay [2], in [3], in [4] and in assay [5] was greater than 25 µM each time. Moreover, the TGI in [8], in assay [9] and in [10] was greater than 25 µM each time.
Consider `O=C(O)CCC1(c2ccccc2)NC(=O)NC1=O` (stereo not given), for which the TGI in [1], in assay [11], in assay [2], in assay [3], in assay [4] and in assay [5] was greater than 100 µM throughout. The TGI in assay [6], in assay [7], in assay [8] and in assay [10] was greater than 100 µM each time.
Take `CC(C)(C)/C(O)=C\c1nc2cc(C(F)(F)F)ccc2[nH]c1=O`: the TGI in [1], in assay [11], in assay [2], in assay [3], in [4] and in assay [5] was greater than 100 µM in each case. For the same compound, the TGI in [6], in [7], in assay [8] and in assay [10] was greater than 100 µM throughout.
Take `COC(=O)C1=C(O)C(C(=O)OC)[C@]2(O)[C@H](C(=O)OC)[C@H]1C[C@@H](c1ccc(OC)cc1)[C@H]2C(=O)OC` (stereo not given in full): the TGI in assay [1] is 53.9 µM; in assay [11] it was greater than 100 µM; in assay [2] it was 66.6 µM; in assay [3], 75.3 µM; in assay [4] it was 34.9 µM; in assay [5] it was 65.6 µM. Moreover, the TGI in [7] was greater than 100 µM; in assay [8], greater than 100 µM; in assay [9], 68.1 µM; in assay [10] it was 78.5 µM.
For the compound `COc1cc2c(c(OC)c1OC)C(=O)CC2N` (stereo not given), the TGI in assay [11], in assay [2], in assay [3], in assay [4], in [5] and in [7] was greater than 100 µM in each case. The TGI in assay [8], in [9] and in assay [10] was greater than 100 µM throughout.
As for `CC(=O)c1cccc(NC2C(N)C(NC(=O)N(C)C)(C(C)O)C(C)(O)C2(O)COC(=O)c2c(C)cccc2O)c1` (stereo not given), the TGI in assay [1] was 0.106 µM; in [11] it was 0.15 µM; in [2] it was 0.3 µM; in assay [3], 0.208 µM; in [4] it was less than 0.001 µM; in assay [5], 0.109 µM. The figures for the TGI in [6], in assay [8] and in [9] were 0.0202 µM, 1.75 µM and 0.835 µM, respectively.
As to `Cc1ccc(/C=N/Nc2ncccn2)s1`, the TGI in [1], in assay [2], in [3], in [5], in [7] and in assay [8] was greater than 100 µM each time. Besides, in [10], the TGI is greater than 100 µM.
As to `S=C1C=C(c2ccccc2)Sc2ccccc2N1`, the TGI in assay [1], in assay [11], in assay [2], in [3], in assay [5] and in assay [6] was greater than 100 µM throughout. Moreover, the TGI in assay [7], in assay [9] and in assay [10] was greater than 100 µM in each case.
Turning to `C[C@@H]1C(O)CC[C@H](C)C12CC=CC2=O` (stereo not given in full), the TGI in assay [1], in [11], in [3], in assay [4], in assay [5] and in assay [6] was greater than 100 µM in each case. Also, the TGI in assay [7], in [8], in assay [9] and in assay [10] was greater than 100 µM in each case.
For `c1ccc(-c2cc(-c3cc(-c4ccccc4)n(-c4ccccc4)n3)nn2-c2ccccc2)cc1`, the TGI in assay [1], in [11], in [2], in assay [3], in [4] and in assay [5] was greater than 100 µM in each case. For the same compound, the TGI in assay [6], in [7] and in assay [9] was greater than 100 µM in each case.
